Measured values: patent US12134616B2, “Tricyclic pesticidal compounds” (BASF SE, priority 2018, dated 2024)

Experiments:
Assay type in all cases: in vivo
[1] = system: tobacco budworm (Heliothis virescens); test: Tobacco budworm (Heliothis virescens) microtiter diet test, egg and larval mortality; details: 120 h, sprayed onto insect diet, 5 days, read-out: mortality (egg and larval) in comparison with untreated controls
Description: (§1) If not otherwise specified, the test solutions are prepared as follows: The active compound is dissolved at the desired concentration in a mixture of 1:1 (vol:vol) distilled water:acteone. The test solution is prepared at the day of use. Test solutions are prepared in general at concentrations of 1000 ppm, 500 ppm, 300 ppm, 100 ppm and 30 ppm (wt/vol).
(§2) For evaluating control of tobacco budworm (Heliothis virescens) the test unit consisted of 96-well-microtiter plates containing an insect diet and 15-25 H. virescens eggs. The compounds were formulated using a solution containing 75% v/v water and 25% v/v DMSO. Different concentrations of formulated compounds were sprayed onto the insect diet at 10 μl, using a custom built micro atomizer, at two replications. After application, microtiter plates were incubated at about 28±1° C. and about 80±5% relative humidity for 5 days. Egg and larval mortality was then visually assessed.

[2] = system: vetch aphid (Megoura viciae); test: Vetch aphid (Megoura viciae) broad bean leaf disk test, contact or systemic; details: foliar, 120 h, sprayed onto leaf disks, 5 days, read-out: mortality (aphid) in comparison with untreated controls
Description: as §1
For evaluating control of vetch aphid (Megoura viciae) through contact or systemic means the test unit consisted of 24-well-microtiter plates containing broad bean leaf disks.
The compounds were formulated using a solution containing 75% v/v water and 25% v/v DMSO. Different concentrations of formulated compounds were sprayed onto the leaf disks at 2.5 μl, using a custom built micro atomizer, at two replications. After application, the leaf disks were air-dried and 5-8 adult aphids placed on the leaf disks inside the microtiter plate wells. The aphids were then allowed to suck on the treated leaf disks and incubated at about 23±1° C. and about 50±5% relative humidity for 5 days. Aphid mortality and fecundity was then visually assessed.

[3] = system: boll weevil (Anthonomus grandis); test: Boll weevil (Anthonomus grandis) microtiter diet test, egg and larval mortality; details: 120 h, sprayed onto insect diet, 5 days, read-out: mortality (egg and larval) in comparison with untreated controls
Description: as §1
as §2, with “boll weevil (Anthonomus grandis)” for “tobacco budworm (Heliothis virescens)”, “5-10 A. grandis” for “15-25 H. virescens”, “5” for “10”, “25±1°” for “28±1°”, “75±5%” for “80±5%”

[4] = system: green peach aphid (Myzus persicae); test: Green peach aphid (Myzus persicae) artificial diet/membrane test, systemic; details: 72 h, pipetted into aphid diet, 3 days, read-out: mortality (aphid) in comparison with untreated controls
Description: as §1
For evaluating control of green peach aphid (Myzus persicae) through systemic means the test unit consisted of 96-well-microtiter plates containing liquid artificial diet under an artificial membrane. The compounds were formulated using a solution containing 75% v/v water and 25% v/v DMSO. Different concentrations of formulated compounds were pipetted into the aphid diet, using a custom built pipetter, at two replications. After application, 5-8 adult aphids were placed on the artificial membrane inside the microtiter plate wells. The aphids were then allowed to suck on the treated aphid diet and incubated at about 23±1° C. and about 50±5% relative humidity for 3 days. Aphid mortality and fecundity was then visually assessed.

Measured: mortality at 2500 ppm

CCS(=O)(=O)c1cc(C(F)(F)F)cnc1-c1nc2cnc3c(OC(F)(F)F)cccc3c2n1C [Compound I.1, 2-[3-ethylsulfonyl-5-(trifluoromethyl)-2-pyridyl]-1-methyl-6-(trifluoromethoxy)imidazo[4,5-c]quinoline]
> 75%: all assays above

CCSc1cc(C(F)(F)F)cnc1-c1nc2cnc3c(OC(F)(F)F)cccc3c2n1C [Compound I.5, 2-[3-ethylsulfanyl-5-(trifluoromethyl)-2-pyridyl]-1-methyl-6-(trifluoromethoxy)imidazo[4,5-c]quinoline]
> 75%: [1] | [3]

CCS(=O)(=O)c1cccnc1-c1cn2c(ccc3c(C(F)(F)F)cc(C(F)(F)F)nc32)n1 [Compound I.54, 8-(3-ethylsulfonyl-2-pyridyl)-2,4-bis(trifluoromethyl)imidazo[1,2-a][1,8]naphthyridine]
> 75%: [1] | [2] | [3]

CCS(=O)(=O)c1cccnc1-c1nc2cc(C(F)(F)F)c3ccccc3n2n1 [Compound I.65, 2-(3-ethylsulfonyl-2-pyridyl)-5-(trifluoromethyl)-[1,2,4]triazolo[1,5-a]quinoline]
> 75%: all assays above
